Test results as given in patent US20100069388A1, “N-HYDROXYACRYLAMIDE COMPOUNDS” (ASTELLAS PHARMA INC., priority 2006, published 2010).
pIC50: −log10 of the molar value. Counter-ions that a name gives are not always drawn.

What was measured:
[1] = system: human histone deacetylase (partially purified from Jurkat cells); test: Test 1: Determination of histone deacetylase inhibitor activity ([3H] acetyl histone deacetylation); assay type: biochemical; conditions: partially purified human HDAC from Jurkat cells, [3H] acetyl-labeled histones, 25° C., 30 minutes; read-out: Test 1: HDAC inhibitory activity IC50
Protocol: The partial purification of human histone deacetylase, the preparation of [^3H] acetyl histones, and the assay for histone deacetylase activity were performed basically according to the method as proposed by Yoshida et al. as follows.
The human histone deacetylase was partially purified from human T cell leukemia Jurkat cells. Jurkat cells (5×10^8 cells) were suspended in 40 mL of the HDA buffer consisting of 15 mM potassium phosphate, pH 7.5, 5% glycerol and 0.2 mM EDTA. After homogenization, nuclei were collected by centrifugation (35,000×g, 10 min) and homogenized in 20 mL of the same buffer supplemented with 1 M (NH4)2SO4. The viscous homogenate was sonicated and clarified by centrifugation (35,000×g, 10 min), and the deacetylase was precipitated by raising the concentration of (NH4)2SO4 to 3.5 M. The precipitated protein was dissolved in 10 mL of the HDA buffer and dialyzed against 4 liters of the same buffer. The dialyzate was then loaded onto a DEAE-cellulose (Whatman DE52) column (25×85 mm) equilibrated with the same buffer and eluted with 300 mL of a linear gradient (0-0.6 M) of NaCl. A single peak of histone deacetylase activity appeared between 0.3 and 0.4 M NaCl.
To obtain [^3H] acetyl-labeled histone as the substrate for the histone deacetylase assay, 1×10^8 cells of Jurkat in 20 mL of RPMI-1640 medium (supplemented with 10% FBS, penicillin (50 units/mL) and streptomycin (50 μg/mL)) were incubated with 300 MBq [^3H] sodium acetate in the presence of 5 mM sodium butyrate for 30 minutes in 5% CO2-95% air atmosphere at 37° C. in a 75 cm^2 flask, harvested into a centrifuge tube (50 mL), collected by centrifugation at 1000 rpm for 10 minutes, and washed once with phosphate-buffered saline. The washed cells were suspended in 15 mL of ice-cold lysis buffer (10 mM Tris-HCl, 50 mM sodium bisulfite, 1% Triton X-100, 10 mM MgCl2, 8.6% sucrose, pH 6.5). After Dounce homogenization (30 stroke), the nuclei were collected by centrifugation at 1000 rpm for 10 minutes, washed 3 times with 15 mL of the lysis buffer, and once with 15 mL of ice-cooled washing buffer (10 mM Tris-HCl, 13 mM EDTA, pH 7.4) successively. The pellet was suspended in 6 mL of ice-cooled water using a mixer, and 68 μl of H2SO4 was added to the suspension to give a concentration of 0.4 N. After incubation at 4° C. for 1 hour, the suspension was centrifuged for 5 minutes at 15,000 rpm, and the supernatant was taken and mixed with 60 mL of acetone. After overnight incubation at −20° C., the coagulated material was collected by microcentrifugation, air-dried, and stored at −80° C.
For the standard assay, 10 μl of [^3H] acetyl-labeled histones were added to 90 μl of the enzyme fraction, and the mixture was incubated at 25° C. for 30 minutes. The reaction was stopped by addition of 10 μl of HCl aq. The released [^3H] acetic acid was extracted with 1 mL of ethyl acetate, and 0.9 mL of the solvent layer was taken into 10 mL of toluene scintillation solution for determination of radioactivity.

[2] = system: splenic cells of Lewis rats; test: Test 2: Determination of T-cell growth inhibitor activity (T lymphocyte blastogenesis, Concanavalin A, AlamarBlue); assay type: cell-based; conditions: Lewis rat splenic cells, Concanavalin A 1 μg/mL, 72 hours, read-out: Test 2: T-cell growth inhibitory activity IC50
Protocol: The T lymphocyte blastogenesis test was performed in microtiter plates with each well containing 1.5×10^5 splenic cells of Lewis rats in 0.1 mL RPMI-1640 medium supplemented with 10% fetal bovine serum (FBS), […] 2-mercaptoethanol, penicilln (100 units/mL) and streptomycin (100 μg/mL), to which Concanavalin A (1 μg/mL) was added. The cells were incubated at 37° C. in a humidified atmosphere of 5% CO2 for 72 hours. After the culture period, suppressive activities of the test compounds in T lymphocyte blastogenesis were quantified by AlamarBlue (trademark) Assay. The test samples were dissolved in DMSO and further diluted with RPMI-1640 medium and added to the culture. The activities of the test compounds were expressed as IC50.

| Compound | pIC50 [1] | pIC50 [2] |
| --- | --- | --- |
| O=C(/C=C/c1cnc(NCCNC(=O)c2ccc(Cl)cc2)c(Cl)c1)NO [Example 3, 4-chloro-N-[2-({3-chloro-5-[(1E)-3-(hydroxyamino)-3-oxo-1-propen-1-yl]-2-pyridinyl}amino)ethyl]benzamide hydrochloride] | 8.77 | 7.74 |
| C[C@@H](Nc1cnc(/C=C/C(=O)NO)cn1)C(=O)N[C@]12CC3C[C@H](C[C@H](C3)C1)C2 [Example 88] | 8.57 | 8.82 |
| C[C@H](CN(C)CC1CCCCC1)Nc1cnc(/C=C/C(=O)NO)cn1 [Example 39] | 9.11 | 9.64 |
| C[C@@H](Nc1ncc(/C=C/C(=O)NO)cc1Cl)C(=O)NCC1CCCCC1 [Example 49, N^2-{3-chloro-5-[(1E)-3-(hydroxyamino)-3-oxoprop-1-en-1-yl]pyridin-2-yl}-N^1-(cyclohexylmethyl)-D-alaninamide] | 7.60 | 7.77 |
| O=C(/C=C/c1cnc(NCCOc2ccccc2)cn1)NO [Example 23] | 8.22 | 7.68 |
| C[C@H](CN(C)Cc1ccc(Cl)cc1)Nc1ncc(/C=C/C(=O)NO)cc1Cl [Example 11] | 8.06 | 8.21 |
| C[C@H](CN(C)Cc1ccccc1)Nc1cnc(/C=C/C(=O)NO)cn1 [Example 36] | 8.40 | 8.82 |
| C[C@H](CNC(=O)C1CCCCC1)Nc1cnc(/C=C/C(=O)NO)cn1 [Example 66] | 8.41 | 7.68 |
| CC(C)[C@@H](Nc1cnc(/C=C/C(=O)NO)cn1)C(=O)NCC1CCCCC1 [Example 57] | 8.04 | 8.33 |
| CC(C)[C@@H](Nc1cnc(/C=C/C(=O)NO)cn1)C(=O)Nc1ccccc1 [Example 91] | 8.82 | 8.59 |
| C[C@@H](Nc1cnc(/C=C/C(=O)NO)cn1)C(=O)NC1Cc2ccccc2C1 [Example 86] | 8.09 | 7.55 |
| O=C(/C=C/c1cnc(NCCNC(=O)C2CCCCC2)c(Cl)c1)NO [Example 10] | 8.17 | 7.77 |
| C[C@@H](Nc1cnc(/C=C/C(=O)NO)cn1)C(=O)NC1CCCCCC1 [Example 87] | 8.64 | 8.49 |
